IC50 data for 3 compounds are collected here from patent US9156840B2, “D2 antagonists, methods of synthesis and methods of use” (ALTOS THERAPEUTICS, LLC, priority 2010, dated 2015).

pIC50: −log10 of the molar value. Where a name gives a salt, the structure may show the parent alone.

What is called pIC50 is the negative decadic logarithm of the IC50, by convention in mol/L.

In the test the target is T1, human D2 receptor (Homo sapiens, UniProt P14416).
T1 construct: expressed in transfected cells; cDNA from Origene clones TC308892 and SC123573
T1 sequence (P14416 whole entry): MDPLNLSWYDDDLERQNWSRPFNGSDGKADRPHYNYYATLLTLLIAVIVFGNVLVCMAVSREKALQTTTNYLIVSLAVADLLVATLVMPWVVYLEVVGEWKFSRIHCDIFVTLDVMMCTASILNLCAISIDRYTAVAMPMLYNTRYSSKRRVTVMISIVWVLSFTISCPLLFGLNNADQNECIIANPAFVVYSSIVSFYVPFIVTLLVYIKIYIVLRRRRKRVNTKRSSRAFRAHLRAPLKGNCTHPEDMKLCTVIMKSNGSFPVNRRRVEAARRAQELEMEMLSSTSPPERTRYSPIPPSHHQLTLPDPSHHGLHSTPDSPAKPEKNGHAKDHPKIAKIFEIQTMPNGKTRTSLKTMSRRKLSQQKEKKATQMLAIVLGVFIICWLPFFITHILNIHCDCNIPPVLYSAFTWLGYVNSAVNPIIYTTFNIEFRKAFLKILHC
The experiment in a line: D2 receptor radioligand binding assay (membranes of HEK-293 cells expressing human D2 receptor). To be noted: radioligand displacement, HEK293 membranes, 37° C. for 120 minutes; read-out: Affinity Score (IC50 values for D2 on a scale of 1 through 5). In outline:
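Membranes from HEK-293 cells stably expressing human D2S or D2L, 10 μg protein per well. Compounds incubated with radioligand (KD 0.09 nM) in Tris buffer pH 7.4 with 0.025% BSA, 120 minutes at 37° C. Filtration and scintillation counting; Ki by Cheng–Prusoff.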
In general terms: In a radioligand displacement assay an active substance lowers the binding of a labelled ligand.
Regarding `O=C(O)c1cccc(CN2CN(C3CCCCC3)C3(CCN(CCCC(=O)c4ccccc4)CC3)C2=O)c1` [Compound 176, 3-((1-cyclohexyl-4-oxo-8-(4-oxo-4-phenylbutyl)-1,3,8-triazaspiro[4.5]decan-3-yl)methyl)benzoic acid, hydrochloride], the pIC50 was above 8.00.
Turning to `CCN(CC)C(=O)COC(=O)c1cccc(CN2CN(c3ccccc3)C3(CCN(CCCn4c(=O)[nH]c5ccccc54)CC3)C2=O)c1` [Compound 30, 2-(Diethylamino)-2-oxoethyl 3-((4-oxo-8-(3-(2-oxo-2,3-dihydro-1H-benzo[d]imidazol-1-yl)propyl)-1-phenyl-1,3,8-triazaspiro[4.5]decan-3-yl)methyl)benzoate], the pIC50 is above 8.00.
As for `O=C(CCCN1CCC2(CC1)C(=O)N(c1ccccc1C(=O)O)CN2c1ccccc1)c1ccccc1` [Compound 180, 2-(4-oxo-8-(4-oxo-4-phenylbutyl)-1-phenyl-1,3,8-triazaspiro[4.5]decan-3-yl)benzoic acid], the pIC50 was above 8.00.
